# In patent US20220163539A1, “NLRP3 INFLAMMASOME INHIBITION” (Inflazome Limited, priority 2019, published 2022):
# Experiments:
# [1] = target: T1, NLRP3 in NLRP3 over-expressing HEK293 cell lysate supernatants (Homo sapiens, UniProt Q96P20); experiment: Radioligand binding assay with [3H]-MCC7840, gel filtration; conditions: 200 nM [3H]-MCC7840, 700 μg protein, 4 hrs at RT; minimum of curve fit constrained; read-out: estimated IC50, competition with [3H]-MCC7840
# T1 construct: expressed in transfected cells; host or cells: HEK293
# T1 sequence (Q96P20 whole entry): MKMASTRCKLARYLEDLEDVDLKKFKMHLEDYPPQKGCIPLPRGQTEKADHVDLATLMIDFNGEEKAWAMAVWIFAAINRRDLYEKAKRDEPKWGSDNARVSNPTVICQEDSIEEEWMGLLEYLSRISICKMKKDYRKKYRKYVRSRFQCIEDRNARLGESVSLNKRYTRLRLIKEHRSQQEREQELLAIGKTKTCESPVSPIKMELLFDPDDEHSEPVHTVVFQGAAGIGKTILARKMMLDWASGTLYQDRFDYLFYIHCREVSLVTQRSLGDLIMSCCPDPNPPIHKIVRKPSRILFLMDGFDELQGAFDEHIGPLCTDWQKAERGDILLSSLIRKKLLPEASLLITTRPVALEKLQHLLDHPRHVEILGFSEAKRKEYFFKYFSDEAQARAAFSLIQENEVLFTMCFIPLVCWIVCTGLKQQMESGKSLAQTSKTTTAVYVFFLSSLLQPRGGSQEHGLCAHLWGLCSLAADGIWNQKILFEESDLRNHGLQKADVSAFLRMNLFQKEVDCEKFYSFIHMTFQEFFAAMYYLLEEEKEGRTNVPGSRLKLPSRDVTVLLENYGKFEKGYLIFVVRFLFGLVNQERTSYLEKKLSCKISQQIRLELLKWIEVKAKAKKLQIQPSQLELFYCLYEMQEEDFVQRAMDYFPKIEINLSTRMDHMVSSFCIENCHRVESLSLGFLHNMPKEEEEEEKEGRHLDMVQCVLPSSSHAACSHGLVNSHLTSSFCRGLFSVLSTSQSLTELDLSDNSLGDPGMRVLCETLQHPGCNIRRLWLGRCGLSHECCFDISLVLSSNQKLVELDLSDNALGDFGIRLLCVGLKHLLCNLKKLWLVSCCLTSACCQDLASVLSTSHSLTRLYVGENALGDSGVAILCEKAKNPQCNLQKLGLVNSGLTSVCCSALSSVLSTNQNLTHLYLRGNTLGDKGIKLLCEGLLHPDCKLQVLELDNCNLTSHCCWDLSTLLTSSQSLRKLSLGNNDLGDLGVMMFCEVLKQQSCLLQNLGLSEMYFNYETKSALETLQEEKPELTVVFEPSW
# Experimental: As NLRP3 is a cytoplasmic protein a conventional filtration binding assay method could not be used to separate free vs bound radiolabel from cell lysates.
# Cell pellets were defrosted over ice and diluted one in two with binding buffer. […] Supernatant was removed and stored at −20° C. Protein determination was performed on these samples using the Pierce BCA kit following the manufacturer's instructions.
# Binding buffer volume was dependent on the volume of supernatant used in the assay. Samples were combined together and incubated, with shaking, for 4 hrs @ room temperature.
# Briefly, the PD MultiTrap plates were spun down at room temperature (RT), 800 g, for 1 minute to remove the storage buffer. They were washed five times with 300 μl/well binding buffer, 800 g, RT for 1 minute.
# 80 μl of sample was added per well, spun down at 400 g for 1 minute. 50 μl of the flow through was added to 145 μl Microscint-20 in Optiplates. The plate was shaken for approximately 30 minutes at RT prior to reading in a Perkin Elmer TopCount. Data was analysed using GraphPad Prism.
# The specific binding was determined by subtracting the non-specific binding from the total binding.
# [2] = system: IL-1β release from THP-1 cells; experiment: IL-1β release assay in THP-1 cells (LPS and nigericin stimulation); conditions: Homo sapiens, THP-1, read-out: IC50 for inhibition of release of IL-1β from THP-1 cells
IC50 [2] [µM],SMILES,IC50 [1] [µM]
–,Nc1ncnc2c1ncn2[C@@H]1O[C@H](COP(=O)(O)OP(=O)(O)OP(=O)(O)O)[C@@H](O)[C@H]1O [ATP],75000
0.027,CC(C)(O)c1coc(S(=O)(=O)NC(=O)Nc2c3c(cc4c2CCC4)CCC3)c1 [MCC950],–
0.11,CC(C)n1ccc(S(=O)(=O)NC(=O)Nc2c3c(cc4c2CCC4)CCC3)n1 [MCC7840],–
